Reference: patent US20100069339A1, “NOVEL METHOD OF TREATMENT OF MALE SUB-FERTILITY” (BIOXELL S.P.A., priority 2006, published 2010)
“Also recorded” adds a separate entry of the source.

Experiments:
[1] = tested on: IL-8; test: Seminal IL-8 in CP/CPPS patients, randomized double-blind placebo controlled study; format: in vivo, human
From the text: We conducted a randomized, double-blind placebo controlled study in 121 patients with CP/CPPS. The primary objective of the study was to evaluate the effect of Compound A(150 mcg/die) after three months of treatment on the NIH score, a score encompassing pain, quality of life and lower urinary tract symptoms. As a secondary endpoint, we measured IL8 in the semen at baseline and at the end of the treatment.

[2] = tested on: matrix metalloproteinase MMP2; test: Sandwich ELISA of seminal plasma MMP2 in trial patients; format: in vivo, human; conditions: CP/CPPS patients, treatment vs placebo
From the text: (§1) A sandwich ELISA system was used to re-evaluate seminal plasma IL-8 level in 27 Placebo-treated and 29 Compound A—treated patients from the trial described in Biological Example 5 and to extend the analysis to other inflammatory mediators. Note that TIMP-1 is an inhibitor of an inflammatory marker.

[3] = tested on: CCL2/MCP-1; test: Sandwich ELISA of seminal plasma CCL2/MCP-1 in trial patients; format: in vivo, human; conditions: CP/CPPS patients, treatment vs placebo
From the text: as §1

[4] = tested on: human BPH cells; test: Inhibition of IL-8 production in human BPH cells by vitamin D compounds; format: cell-based; conditions: BPH cells stimulated with IL-17 10 ng/ml and interferon gamma 10 ng/ml; compounds at 1, 10 and 100 nM, 72 hours; ELISA
Experimental: Approximately 2000 human BPH cells were placed in wells of a standard 96 well plate and stimulated for 72 hours with IL-17 at 10 ng/ml and interferon gamma at 10 ng/ml and incubated with vitamin D compounds individually at concentrations of 1, 10 and 100 nM for 72 hours IL-8 production by the cells was measured by conventional two-site ELISA using human IL-8 ELISA set (BD Biosciences, San Diego, Calif.) according to the manufacturer's instructions.

[5] = tested on: IL-8; test: Sandwich ELISA re-evaluation of seminal plasma IL-8 in trial patients; format: in vivo, human; conditions: 29 Compound A-treated vs 27 Placebo-treated patients, p=0.002
From the text: as §1

[6] = tested on: soluble pattern recognition receptor PTX3; test: Sandwich ELISA of seminal plasma PTX3 in trial patients; format: in vivo, human; conditions: CP/CPPS patients, treatment vs placebo
From the text: as §1

[7] = tested on: tissue inhibitor of metalloproteinase TIM-1; test: Sandwich ELISA of seminal plasma TIM-1 in trial patients; format: in vivo, human; conditions: CP/CPPS patients, treatment vs placebo
From the text: as §1

[8] = tested on: BPH cells; conditions: cited from earlier work

## C=C1/C(=C\C=C2/CCC[C@]3(C)C([C@@H](C)C/C=C/C(O)(CC)CC)=CC[C@@H]23)C[C@@H](O)C[C@@H]1F [Compound A, 1-alpha-fluoro-25-hydroxy-16,23E-diene-26,27-bishomo-20-epi-cholecalciferol]
[1]; 150 mcg/die, after 12 weeks
  IL-8 levels in the semen vs. placebo: significantly reduce; also recorded: can lower seminal IL-8 levels in human patients
[1]; 150 mcg/die, week 12
  Seminal IL-8, % Change vs Baseline Week 12, 25th perc.: −42.37%
  Seminal IL-8, % Change vs Baseline Week 12, 75th perc.: 1.05%
  Seminal IL-8, % Change vs Baseline Week 12, Max: 89.48%
  Seminal IL-8, % Change vs Baseline Week 12, Mean: −19.33%
  Seminal IL-8, % Change vs Baseline Week 12, Median: −19.17%
  Seminal IL-8, % Change vs Baseline Week 12, Min: −61.82%
  Seminal IL-8, Abs Change vs Baseline Week 12, 25th perc.: −723.00
  Seminal IL-8, Abs Change vs Baseline Week 12, 75th perc.: 12.50
  Seminal IL-8, Abs Change vs Baseline Week 12, Max: 604.00
  Seminal IL-8, Abs Change vs Baseline Week 12, Mean: −368.34
  Seminal IL-8, Abs Change vs Baseline Week 12, Median: −358.00
  Seminal IL-8, Abs Change vs Baseline Week 12, Min: −1264.00
  Seminal IL-8, Week 12, 25th perc.: 809.50
  Seminal IL-8, Week 12, 75th perc.: 1394.00
  Seminal IL-8, Week 12, Max: 2599.00
  Seminal IL-8, Week 12, Mean: 1172.57
  Seminal IL-8, Week 12, Median: 985.50
  Seminal IL-8, Week 12, Min: 386.00
[1]; before treatment
  Seminal IL-8, Baseline, 25th perc.: 947.50
  Seminal IL-8, Baseline, 75th perc.: 1903.50
  Seminal IL-8, Baseline, Max: 3015.00
  Seminal IL-8, Baseline, Mean: 1486.43
  Seminal IL-8, Baseline, Median: 1376.50
  Seminal IL-8, Baseline, Min: 468.00
[2]
  MMP2 level in seminal plasma: decreased
[3]
  CCL2/MCP-1 level in seminal plasma: decreased
[4]
  IL-8 production (IL-8 concentration): can lower IL-8 levels in vitro
[5]
  seminal plasma IL-8 levels compared to placebo: Significantly reduced
[6]
  PTX3 level in seminal plasma: decreased
[7]
  TIM-1 level in seminal plasma: enhanced

## C=C1CC[C@H](O)C/C1=C/C=C1\CCC[C@]2(C)[C@@H]([C@H](C)CCCC(C)C)CC[C@@H]12 [vitamin D3, 9,10-secocholesta-5,7,10(19)-trien-3B-ol]
[8]
  BPH cell proliferation: inhibited
[8]; keratinocyte growth factor (KGF) and insulin-like growth factor (IGF1)
  mitogenic activity of growth factors for BPH cells: counteracted
